Test results: patent publication US20230083973A1, “SUBSTITUTED CYCLOPROPYL-2,2'-BIP[…], ANALOGUES THEREOF, AND METHODS USING SAME” (priority 2019, published 2023)
Like-named read-outs stand apart in the source and are kept apart here.

Test system: HBsAg
Assay: HBsAg assay: inhibition of HBsAg in HepG2.2.15 cells (chemiluminescence immunoassay of supernatant)
Type: cell-based, hepatitis B virus
Conditions: HBsAg in supernatant at day 6 after exposure to compound, 0.5% DMSO
Method in brief: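 HepG2.2.15 cells treated with serially diluted compounds (0.5% DMSO), medium and compound refreshed after 2–3 days, supernatant harvested at day 6. Secreted HBsAg measured by chemiluminescence immunoassay; EC50 from dose-response curves, with parallel CellTiter-Glo viability at 5,000 cells/well.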

[1] = read-out: sAg EC50, HepG2.2.15 cells
[2] = Hepatitis B virus, HepG2.2.15, 144 h, read-out: sAg EC50, HepG2.2.15 cells

Row | Compound | EC50 [1] [nM] | EC50 [2] [nM]
1 | CNC(=O)c1cc(C2CC2c2cnc(-c3ncccn3)nc2)ccc1Cl (single isomer, unassigned) [Example 201, trans-5-(2-([2,2′-Bipyrimidin]-5-yl)cyclopropyl)-2-chloro-N-methylbenzamide] | 9000 | –
2 | CNC(=O)c1cc(C2CC2c2cnc(-c3ncccn3)nc2)ccc1Cl (single isomer, unassigned) [Example 202, trans-5-(2-([2,2′-Bipyrimidin]-5-yl)cyclopropyl)-2-chloro-N-methylbenzamide] | 4000 | –
3 | CN(C)C(=O)c1cc(C2CC2c2cnc(-c3ncccn3)nc2)ccc1Cl (single isomer, unassigned) [Example 203, trans-5-(2-([2,2′-Bipyrimidin]-5-yl)cyclopropyl)-2-chloro-N,N-dimethylbenzamide] | – | 6000
4 | CN(C)C(=O)c1cc(C2CC2c2cnc(-c3ncccn3)nc2)ccc1Cl (single isomer, unassigned) [Example 204, trans-5-(2-([2,2′-Bipyrimidin]-5-yl)cyclopropyl)-2-chloro-N,N-dimethylbenzamide] | 4000 | –
5 | CC(=O)Nc1cc(C2CC2c2cnc(-c3ncccn3)nc2)ccc1Cl (single isomer, unassigned) [Example 205, trans-N-(5-(2-([2,2′-Bipyrimidin]-5-yl)cyclopropyl)-2-chlorophenyl)acetamide] | – | 510
6 | CC(=O)Nc1cc(C2CC2c2cnc(-c3ncccn3)nc2)ccc1Cl (single isomer, unassigned) [Example 206, trans-N-(5-(2-([2,2′-Bipyrimidin]-5-yl)cyclopropyl)-2-chlorophenyl)acetamide] | 820 | –
7 | Fc1cc(C2CC2c2cnc(-c3ncccn3)nc2)cc(NC2CCCC2)c1F (single isomer, unassigned) [Example 207, trans-5-(2-([2,2′-Bipyrimidin]-5-yl)cyclopropyl)-N-cyclopentyl-2,3-difluoroaniline] | 750 | –
8 | Fc1cc(C2CC2c2cnc(-c3ncccn3)nc2)cc(NC2CCCC2)c1F (single isomer, unassigned) [Example 208, trans-5-(2-([2,2′-Bipyrimidin]-5-yl)cyclopropyl)-N-cyclopentyl-2,3-difluoroaniline] | 110 | –
9 | CC1(C)CCN(c2cc(C3CC3c3cnc(-c4ncccn4)nc3)cc(F)c2F)C1 (single isomer, unassigned) [Example 220, trans-5-(2-(3-(3,3-Dimethylpyrrolidin-1-yl)-4,5-difluorophenyl)cyclopropyl)-2,2′-bipyrimidine] | 30 | –
10 | CC1(C)CCN(c2cc(C3CC3c3cnc(-c4ncccn4)nc3)cc(F)c2F)C1 (single isomer, unassigned) [Example 221, trans-5-(2-(3-(3,3-Dimethylpyrrolidin-1-yl)-4,5-difluorophenyl)cyclopropyl)-2,2′-bipyrimidine] | 320 | –
11 | Fc1cc(C2CC2c2cnc(-c3ncccn3)nc2)cc(N2CCC3(COC3)C2)c1F (single isomer, unassigned) [Example 222, trans-6-(5-(2-([2,2′-Bipyrimidin]-5-yl)cyclopropyl)-2,3-difluorophenyl)-2-oxa-6-azaspiro[3.4]octane] | 190 | –
12 | Fc1cc(C2CC2c2cnc(-c3ncccn3)nc2)cc(N2CCC3(COC3)C2)c1F (single isomer, unassigned) [Example 223, trans-6-(5-(2-([2,2′-Bipyrimidin]-5-yl)cyclopropyl)-2,3-difluorophenyl)-2-oxa-6-azaspiro[3.4]octane] | 10 | –
13 | CC(=O)N1CC[C@H](Nc2cc(C3CC3c3cnc(-c4ncccn4)nc3)cc(F)c2F)C1 (single isomer, unassigned) [Example 224] | 5000 | –
14 | CC(=O)N1CC[C@H](Nc2cc(C3CC3c3cnc(-c4ncccn4)nc3)cc(F)c2F)C1 (single isomer, unassigned) [Example 225] | 350 | –
15 | CC(=O)N1CC[C@@H](Nc2cc(C3CC3c3cnc(-c4ncccn4)nc3)cc(F)c2F)C1 (single isomer, unassigned) [Example 226] | 1000 | –
16 | CC(=O)N1CC[C@@H](Nc2cc(C3CC3c3cnc(-c4ncccn4)nc3)cc(F)c2F)C1 (single isomer, unassigned) [Example 227] | 270 | –
17 | CN1CC[C@H](Nc2cc(C3CC3c3cnc(-c4ncccn4)nc3)cc(F)c2F)C1 (single isomer, unassigned) [Example 228] | 15000 | –
18 | CN1CC[C@H](Nc2cc(C3CC3c3cnc(-c4ncccn4)nc3)cc(F)c2F)C1 (single isomer, unassigned) [Example 229] | 3000 | –
19 | CN1CC[C@@H](Nc2cc(C3CC3c3cnc(-c4ncccn4)nc3)cc(F)c2F)C1 (single isomer, unassigned) [Example 230] | 7000 | –
20 | CN1CC[C@@H](Nc2cc(C3CC3c3cnc(-c4ncccn4)nc3)cc(F)c2F)C1 (single isomer, unassigned) [Example 231] | 750 | –
21 | Fc1cc(C2CC2c2cnc(-c3ncccn3)nc2)cc(OC2CCCC2)c1F (single isomer, unassigned) [Example 245, trans-5-(2-(3-(Cyclopentyloxy)-4,5-difluorophenyl)cyclopropyl)-2,2′-bipyrimidine] | 5000 | –
22 | Fc1cc(C2CC2c2cnc(-c3ncccn3)nc2)cc(OC2CCCC2)c1F (single isomer, unassigned) [Example 246, trans-5-(2-(3-(Cyclopentyloxy)-4,5-difluorophenyl)cyclopropyl)-2,2′-bipyrimidine] | 150 | –
23 | Fc1cc(C2CC2c2cnc(-c3ncccn3)nc2)cc(O[C@@H]2CCOC2)c1F (single isomer, unassigned) [Example 247] | 76 | –
24 | Fc1cc(C2CC2c2cnc(-c3ncccn3)nc2)cc(O[C@@H]2CCOC2)c1F (single isomer, unassigned) [Example 248] | 1000 | –
25 | Fc1cc(C2CC2c2cnc(-c3ncccn3)nc2)cc(O[C@H]2CCOC2)c1F (single isomer, unassigned) [Example 249] | 800 | –
26 | Fc1cc(C2CC2c2cnc(-c3ncccn3)nc2)cc(O[C@H]2CCOC2)c1F (single isomer, unassigned) [Example 250] | 76 | –
27 | COc1cnn(-c2cc(C3CC3c3cnc(-c4ncccn4)nc3)cc(F)c2F)c1 (single isomer, unassigned) [Example 251, trans-5-(2-(3,4-Difluoro-5-(4-methoxy-1H-pyrazol-1-yl)phenyl)cyclopropyl)-2,2′-bipyrimidine] | 41 | –
28 | COc1cnn(-c2cc(C3CC3c3cnc(-c4ncccn4)nc3)cc(F)c2F)c1 (single isomer, unassigned) [Example 252, trans-5-(2-(3,4-Difluoro-5-(4-methoxy-1H-pyrazol-1-yl)phenyl)cyclopropyl)-2,2′-bipyrimidine] | 14 | –
29 | Fc1cc([C@@H]2C[C@H]2c2cnc(-c3ncccn3)nc2)cc(-n2cccn2)c1F (single isomer, unassigned) [Example 253, trans-5-(2-(3,4-difluoro-5-(1H-pyrazol-1-yl)phenyl)cyclopropyl)-2,2′-bipyrimidine] | – | 29
30 | Fc1cc([C@@H]2C[C@H]2c2cnc(-c3ncccn3)nc2)cc(-n2cccn2)c1F (single isomer, unassigned) [Example 254, trans-5-(2-(3,4-Difluoro-5-(1H-pyrazol-1-yl)phenyl)cyclopropyl)-2,2′-bipyrimidine] | 47 | –
